Target: T1, L-aspartate-α-decarboxylase (Escherichia coli, UniProt P0A790)
T1 construct: expressed in transfected cells; host or cells: E. coli W3110 transformed with pIF309 = strain NS3291 (ATCC 98675), whole cells
Assay: Activity towards D/L-glutamate and D/L-alanine, D/L-aspartate as control (Example 8)
Assay type: biochemical, E. coli K12
Conditions: racemate substrate, pH 7.0
Experimental: D/L-aspartate was run as a control.
Substrates were prepared by dissolving solid amino acid racemate in approximately 75 ml deionized H2 O and adjusting the pH to 7.0 with 10N NaOH. The volume was then brought to 100 ml with deionized H2 O. The cells used were stored frozen for about 1 month and then thawed and stored in a refrigerator for about 1 month prior to running the experiments.
The reaction was run the same as described in the prior Examples. Samples of supernatant fluid, approximately 0.20 ml, were removed over time, centrifuged and stored frozen before analysis by HPLC as described in the prior Examples.

SMILES | concentration in supernatant fluid (0 hr) | concentration in supernatant fluid (3.5 hr) | percent remaining (3.5 hr) | concentration in supernatant fluid (8.5 hr) | percent remaining (8.5 hr) | concentration in supernatant fluid (24 hr) | percent remaining (24 hr) | concentration in supernatant fluid (55 hr) | percent remaining (55 hr)
N[C@H](CCC(=O)O)C(=O)O [D-Glu] | 29.440 mg/mL | 29.010 mg/mL | 98.539% | 29.520 mg/mL | 100.27% | 29.350 mg/mL | 99.694% | 29.840 mg/mL | 101.36%
C[C@H](N)C(=O)O [L-Ala] | 19.320 mg/mL | 18.960 mg/mL | 98.137% | 18.730 mg/mL | 96.946% | 18.320 mg/mL | 94.824% | 17.830 mg/mL | 92.288%
N[C@@H](CCC(=O)O)C(=O)O [L-Glu] | 29.350 mg/mL | 28.400 mg/mL | 96.763% | 28.740 mg/mL | 97.922% | 28.200 mg/mL | 96.082% | 28.000 mg/mL | 95.400%
C[C@@H](N)C(=O)O [D-Ala] | 19.190 mg/mL | 18.590 mg/mL | 96.873% | 18.370 mg/mL | 95.727% | 17.930 mg/mL | 93.434% | 17.580 mg/mL | 91.610%

— patent publication US5834259A, “Process and composition for preparing D-aspartic acid” (Monsanto Company, priority 1996, dated 1998)
